The source of these data is article PMC8631675, “Neuroprotective effects of some epigenetic modifying drugs’ on Chlamydia pneumoniae-induced neuroinflammation: A novel model” (PLoS ONE, 2021).

Where two headings read alike, the source gives them in different places.

In data set [1] the test system is differentiated SH-SY5Y cells. Put plainly: Annexin V-PI staining of Aβ-induced cell death, flow cytometry. It counts as cell-based, human. As to conditions: for Necrotic effect (Q5-UL): control 1.6%; for Apoptotic effect (early apoptosis + late apoptosis): control 1.9%; for Percentage of living cells (Live): control 96.5%. As for the experimental part: To determine neuronal apoptosis associated with Aβ exposure, 25x10^3 differentiated SH-SY5Y cells were seeded in 24-well plates and Aβ was applied. After 24 h, cells were trypsinized and staining was performed according to the CF 488A Annexin V and PI Apoptosis Kit (Biotium, USA, Cat. No: 30061) protocol. After washing the cells with 1xPBS, the working solution was prepared by diluting the PI with Annexin V binding buffer included in the kit. 5 μl Annexin V and 2 μl PI working solution were added to the centrifuge tubes and binded with 100 μl Annexin V binding buffer. After the samples were incubated for 30 minutes on ice and in the dark, 400 μl of Annexin V binding buffer was added to each tube and the samples were measured and analyzed in a BD Accuri™ C6 flow cytometry device.

A further data set has as its system HMC3 microglia cells. In words: Cell proliferation (cytotoxicity) analysis with xCELLigence, HMC3. The format is cell-based, human. As to the method:
(§1) Cell proliferation analysis was performed with xCELLigence Real-Time Cell Analysis System to assess TSA, RG108, givinostat, and rifampin concentrations for use in both models. Differentiated SH-SY5Y and HMC3 microglia cells were seeded at a 5x10^3 density per well and incubated 24 h until CI values reached a log phase. The system stopped at the end of 24 h, 100, 10 and 1 μM TSA, givinostat, RG108 and rifampin were applied on current media and the cell viability was tracked. […] Simultaneously, slope plots were drawn using the CI values at 24 and 48 hours, and the statistical significance of the values discovered by assuming the average CI values of the control wells to be 100% was calculated.

In data set [2] the test system is differentiated SH-SY5Y cells. In words: Cell proliferation (cytotoxicity) analysis with xCELLigence, SH-SY5Y. It counts as cell-based, human. As for the experimental part:
as §1

A further data set deals with SH-SY5Y cells. In words: Total ROS/Superoxide detection. The format is cell-based, human. As to conditions: for Increase of ROS levels compared to the control group: inducers without drug pretreatment (Aβ, pyocyanin, or both). As for the experimental part:
The Total ROS/Superoxide Detection Kit (ENZ-51010, Enzo) was used according to the kit process for evaluating the protective effects of the treatment groups on SH-SY5Y cells seeded at a 2x10^4 density per well in 96-well plates and Aβ was applied. ROS inhibitor N-acetyl cysteine (NAC) was applied at 5 mM concentration to negative control groups 30 minutes before the experiment and after incubation, 100 μL of “ROS/Superoxide Detection Solution” was added to the wells in the kit. The same procedure was done without the application of ROS inhibitor. Fluorometric analysis of stained cells was analyzed with Cytation 3 Cell Imaging Multi-Mode Reader (BioTek) using 490/525 nm and 550/620 nm filter sets.

Data set [3] relates to differentiated SH-SY5Y cells. In words: Cell viability against Aβ-induced neurotoxicity, xCELLigence. The format is cell-based, human. As to the method:
Pathological deterioration in AD is mainly associated with overproduction of the Aβ peptide and the Aβ (1–42) variant is the toxic form that is more predominant in Alzheimer’s patients. In this study, a modified oligomeric Aβ (1–42) neurotoxicity analysis protocol was applied in order to elucidate the effects of treatment groups on SH-SY5Y cell viability in the presence of Aβ [56]. In order to model Aβ-induced neurotoxicity in vitro, an oligomeric form of the Aβ1–42 peptide was prepared by diluting with ice-cold Ham’s F12 Nutrient Mixture medium dissolved in PBS containing 0.02 M NaOH at a final concentration of 50 μM and kept in a 37°C incubator for 7 days to form peptide aggregates prior to the experiments. 5x10^3 SH-SY5Y cells were differentiated inside the xCELLigence instrument for 5 days and treated with 100 nM TSA, RG108, givinostat, rifampin; 100 ng/ml LPS+IFN-ɣ or 1 μg/ml CFS+IFN-ɣ for 24 h in order to evaluate neuroprotection. The co-culture was performed in the same way as the neuroinflammation model. Neurotoxicity was obtained instead of neuroinflammation by diluting to 5 μM with fresh medium and adding Aβ1–42 aggregates to the wells for 24 h in 100 μl of medium. Cell viability data was then monitored for 24 h and analyzed within the instrument.

In a further data set the test system is APP/PS1 mice. Details: method as in PMID 33397436. As to conditions: cited from earlier work.
Setting [4] is: pretreatment (drugs 100 nM; LPS 100 ng/ml + IFN-γ; CFS 1 μg/ml + IFN-γ) + 5 μM Aβ 24 h.
The mark [5] stands for this setting: 30 minutes NAC 5 mM, treated (drugs 100 nM; LPS 100 ng/ml; CFS 1 μg/ml, with IFN-γ) prior to Aβ exposure.
The mark [6] stands for this setting: cells treated (drugs 100 nM; LPS 100 ng/ml; CFS 1 μg/ml, with IFN-γ) before exposure to Aβ, without NAC.
The mark [7] stands for this setting: 24 h pretreatment (drugs 100 nM; CFS 1 μg/ml + IFN-γ; LPS 100 ng/ml + IFN-γ), then 5 μM Aβ (1–42) aggregates 24 h.

Broadly, the IC50 is the concentration that inhibits the measured activity by half. `CCN(CC)Cc1ccc2cc(COC(=O)Nc3ccc(C(=O)NO)cc3)ccc2c1` [Givinostat, givinostat]: the “Reduction of cell viability compared to the Aβ positive control group” value in data set [1] (100 nM + 5 μM Aβ) is 0.5%. The “Necrotic effect (Q5-UL)” value in data set [1] (setting [4]) is 7.8%. In addition, the “Apoptotic effect (early apoptosis + late apoptosis)” value (shortened to “Apoptotic effect”) in data set [1] (setting [4]) amounted to 7.8%. In addition, the “Percentage of living cells (Live)” value in data set [1] (setting [4]) is 84.3%. The “Reduction of HMC3 cell viability compared to the control group” value with HMC3 microglia cells (1 μM (printed M), 24 hours) is 35.01%; in the data set on HMC3 microglia cells (1 μM (printed M), 48 hours), 62.78%; in the data set on HMC3 microglia cells (10 μM, 24 hours), 58.19%; in the data set on HMC3 microglia cells (10 μM, 48 hours), 92.67%; with HMC3 microglia cells (100 μM, 24 hours), 93.58%; with HMC3 microglia cells (100 μM, 48 hours) it was 99.29%. The IC50 with HMC3 microglia cells (Homo sapiens, HMC3, 24 h, from CI values at 24th hour, 1, 10 and 100 μM tested, read-out: IC50 Values 24h HMC3) worked out at 11800 nM; with HMC3 microglia cells (Homo sapiens, HMC3, 48 h, from CI values at 48th hour, 1, 10 and 100 μM tested, read-out: IC50 Values 48h HMC3), 539 nM; in data set [2] (Homo sapiens, SH-SY5Y, 24 h, from CI values at 24th hour, 1, 10 and 100 μM tested, read-out: IC50 Values 24h SH-SY5Y), 2780 nM; in data set [2] (Homo sapiens, SH-SY5Y, 48 h, from CI values at 48th hour, 1, 10 and 100 μM tested, read-out: IC50 Values 48h SH-SY5Y), 1420 nM. The “Reduction of differentiated SH-SY5Y cell viability” value in data set [2] (1 μM, 24 hours) is recorded as 88.72%; in data set [2] (1 μM, 48 hours) it was 90.56%; in data set [2] (10 μM, 24 hours), 96.85%; in data set [2] (10 μM, 48 hours), 96.9%; in data set [2] (100 μM, 24 hours) it was 98.06%; in data set [2] (100 μM, 48 hours), 98.77%. Besides, in the data set with SH-SY5Y cells (setting [5]), the “Increase of total amount of ROS compared to the control group, with NAC” value (“Increase of total amount of ROS … with NAC” below) was 22.87%. In addition, the “Decrease of total ROS amount according to the Aβ group” value in the data set with SH-SY5Y cells (setting [6]) is given as 30.49%. In addition, in the data set on SH-SY5Y cells (cells treated (drugs 100 nM; LPS 100 ng/ml; CFS 1 μg/ml, with IFN-γ) before exposure to Aβ, without NAC, not significant), the “Increase of total amount of ROS compared to the control group” value is given as 13.09%. In addition, the “CI values compared to the control group” value in data set [3] (setting [7]) is reported as 136.2%.

`CC(/C=C/C(=O)NO)=C\[C@@H](C)C(=O)c1ccc(N(C)C)cc1` [TSA, Trichostatin A]: the “Necrotic effect (Q5-UL)” value in data set [1] (setting [4]) is listed as 5.6%. Moreover, the “Apoptotic effect” value in data set [1] (setting [4]) is listed as 5.8%. The “Percentage of living cells (Live)” value in data set [1] (setting [4]) was determined as 88.6%. For the same molecule, the “Reduction of HMC3 cell viability compared to the control group” value in the data set on HMC3 microglia cells (1 μM (printed M), 24 hours) turned out to be 0.04%; with HMC3 microglia cells (1 μM (printed M), 48 hours), 1.75%; in the data set on HMC3 microglia cells (10 μM, 24 hours) it was 13.88%; in the data set on HMC3 microglia cells (10 μM, 48 hours), 21.94%; in the data set with HMC3 microglia cells (100 μM, 24 hours), 31.68%; with HMC3 microglia cells (100 μM, 48 hours), 51.2%. Moreover, the IC50 came to 156 nM in the data set on HMC3 microglia cells (from CI values at 48th hour, 1, 10 and 100 μM tested, read-out: IC50 Values 48h HMC3); 596 nM in data set [2] (from CI values at 24th hour, 1, 10 and 100 μM tested, read-out: IC50 Values 24h SH-SY5Y); 312 nM in data set [2] (from CI values at 48th hour, 1, 10 and 100 μM tested, read-out: IC50 Values 48h SH-SY5Y). For the same molecule, the “Reduction of differentiated SH-SY5Y cell viability” value was determined as 91.34% in data set [2] (1 μM, 24 hours); 97.97% in data set [2] (1 μM, 48 hours); 97.43% in data set [2] (10 μM, 24 hours); 98.9% in data set [2] (10 μM, 48 hours); 97.86% in data set [2] (100 μM, 24 hours); 99.79% in data set [2] (100 μM, 48 hours). In the data set on SH-SY5Y cells (setting [5]), the “Increase of total amount of ROS … with NAC” value stood at 0.7%. Further, in the data set on SH-SY5Y cells (setting [6]), the “Decrease of total ROS amount according to the Aβ group” value was 53.43%. The “Decrease of total amount of ROS compared to the control group” value in the data set with SH-SY5Y cells (cells treated with compounds (100 nM) before exposure to Aβ, without NAC) was 9.85%. In addition, the “CI values compared to the control group” value in data set [3] (setting [7]) stood at 137%. The “Effect on Aβ plaques and soluble Aβ oligomers in the brain” value in the data set with APP/PS1 mice is “reduce Aβ plaques and soluble Aβ oligomers in the brain”. In addition, the “Effect on learning and memory behaviors” value in the data set on APP/PS1 mice is “improve learning and memory behaviors”.

In the case of `Cn1c2cccc(=O)c-2nc2ccccc21` [pyocyanin], in the data set with SH-SY5Y cells (30 minutes NAC 5 mM, pyocyanin without Aβ), the “Decrease of amount of ROS, with NAC” value was 0.85%. The “Increase of ROS levels compared to the control group” value with SH-SY5Y cells (without NAC) is 36.49%.

For “Aβ: oligomeric/aggregated Aβ1–42 peptide used at 5 μM to induce neurotoxicity”, in data set [1] (5 μM Aβ alone 24 h), the “Necrotic effect (Q5-UL)” value worked out at 6.7%, the “Apoptotic effect” value is reported as 8.5% and the “Percentage of living cells (Live)” value is recorded as 84.8%. Also, the “Increase of total amount of ROS … with NAC” value in the data set with SH-SY5Y cells (30 minutes ROS inhibitor NAC 5 mM, inducers without drug pretreatment (Aβ, or Aβ with pyocyanin)) turned out to be 6.62%. In the data set with SH-SY5Y cells (without NAC), the “Increase of ROS levels compared to the control group” value was found to be 43.58%. Also, the “CI values compared to the control group” value in data set [3] (5 μM Aβ (1–42) aggregates alone, 24 h) was found to be 48.5%.
